Results taken from patent US5200309A, “Color photographic materials including magenta coupler, carbonamide compound and aniline or amine compound, and methods” (Eastman Kodak Company, priority 1991, dated 1993).

Assay: Potentiometric titration of dispersion pKa of couplers (two-phase aqueous dispersion)
Format: physicochemical
Source text: Preferred two-equivalent magenta dye-forming couplers for the practice of this invention include those that have pKa values of less than 10.0 when dispersed together with a coupler solvent. Potentiometric titrations were used to measure pKa values for some of the preferred couplers of the invention as aqueous dispersions. In these two-phase mixtures, the term pKa denotes the aqueous buffer pH at which half of the coupler in the oil phase is ionized or ion paired. Table I lists dispersion pKa values measured with 0.50 M potassium counter ion.

[1] = coupler solvent S2, coupler:solvent weight ratio 1:2, 0.50 M potassium
[2] = coupler solvent C5, coupler:solvent weight ratio 1:1, 0.50 M potassium
[3] = coupler solvent S1, coupler:solvent weight ratio 1:1, 0.50 M potassium

Compound	pKa(0.5M K+) [1]	pKa(0.5M K+) [2]	pKa(0.5M K+) [3]	pKa(0.5M K+) (coupler solvent C1, coupler:solvent weight ratio 1:2, 0.50 M potassium)
CCCCCCCCCCCCNS(=O)(=O)c1ccc(NC2=NN(c3c(Cl)cc(Cl)cc3Cl)C(=O)C2Sc2cc(C(C)(C)CC(C)(C)C)ccc2OCCCC)c(Cl)c1 (stereo not drawn) [Coupler M1]	8.5			
CCCCCCCCCCCCCC(=O)Nc1ccc(Cl)c(NC2=NN(c3c(Cl)cc(Cl)cc3Cl)C(=O)C2Sc2ccccc2NC(=O)C(CC)Oc2ccc(C(C)(C)CC)cc2C(C)(C)CC)c1 (stereo not drawn) [Coupler M3]		8.2	7.9	
CCCCCCCCCCCCNS(=O)(=O)c1ccc(NC2=NN(c3c(Cl)cc(Cl)cc3Cl)C(=O)C2Sc2ccccc2NC(=O)C(CC)Oc2ccc(C(C)(C)CC)cc2C(C)(C)CC)c(Cl)c1 (stereo not drawn) [Coupler M4]		8.0	7.6	

Continued, values first:

pKa(0.5M K+) [1]	pKa(0.5M K+) [2]	pKa(0.5M K+) [3]	pKa(0.5M K+) (coupler solvent C1, coupler:solvent weight ratio 1:2, 0.50 M potassium)	Compound
7.5				CCCCCCCCCCCCCCCC(=O)Nc1ccc(Cl)c(NC2=NN(c3c(Cl)c(Cl)c(Cl)c(Cl)c3Cl)C(=O)C2Sc2ccccc2NC(=O)OCc2ccccc2)c1 (stereo not drawn) [Coupler M7]
7.9				CCCCCCCCCCCCNS(=O)(=O)c1ccc(NC2=NN(c3c(Cl)cc(Cl)cc3Cl)C(=O)C2Sc2ccccc2NC(=O)CCCCCCCCCCC)c(Cl)c1 (stereo not drawn) [Coupler M8]
8.4			8.9	CCCCCCCCCCCCCCCCCCNS(=O)(=O)c1ccc(Cl)c(NC2=NN(c3c(Cl)cc(Cl)cc3Cl)C(=O)C2Sc2cc(C(C)C)ccc2C(C)C)c1 (stereo not drawn) [Coupler M20]
